Results reported in patent publication US20120315648A1, “METHOD OF IDENTIFICATION OF CELLS THAT SHOW SENSITIVITY TO MODULATION OF SIGNALING MEDIATED BY A FIBROBLAST GROWTH FACTOR RECEPTOR OR A VARIANT THEREOF” (priority 2007, published 2012).
Entries after “also recorded” stand apart in the source; their conditions may differ.

Experiments:
[1] = test system: MAPK activation in RT112 cells; test: MAPK activation upon growth factor stimulation (anti-phosphoMAPK Western Blot), RT112 cells; assay type: cell-based, human; settings: EGF 10 ng/ml, insulin 5 μg/ml, FIG. 3
Method: (§1) FIG. 3: Comparative analysis of FRS-2 tyrosine phosphorylation upon growth factor stimulation: The bladder cancer cell lines RT112 and […] are stimulated with aFGF/heparin (50 ng/ml//5 μg/ml), EGF (10 ng/ml) (from R & D Systems, Inc., Minneapolis, Minn., USA; #236-EG-200) or insulin (5 μg/ml) (Sigma, Sigma-Aldrich, Inc., St. Louis, Mo., USA; #1882). Cells are lysed and total protein lysates are recovered. FRS-2 tyrosine phosphorylation is determined by immunoprecipitation followed by anti-pTyr antibody Western Blotting, using antibodies mentioned in Table 1 of Example 1. […] Equal amount of MAPK protein is monitored by Western Blotting with α-MAPK (MAPK in Table 1 in Example 1). […]
(§2) Cells are solubilized in 1% Triton extraction buffer containing protease and phosphatase inhibitors (“lysis buffer” 50 mM Tris pH 7.5, 150 mM NaCl, 1 mM EGTA, 5 mM EDTA, 1% Triton, 2 mM NaVanadate, 1 mM PMSF and protease inhibition cocktail from Hoffmann-LaRoche, Basel, Switzerland, #1187358001). Lysates are clarified by centrifugation at 12000×g for 15 min and protein concentration is determined using the DC Protein Assay Reagents (Bio Rad, Bio-Rad Laboratories, Inc., Hercules, Calif., USA, #500-0116) (an assay based on the method of Bradford, M., see Anal. Biochem., 72, 248 (1976), employing Coomassie Blue®, ICI) and a Bovine Serum Albumin (BSA) standard. […]

[2] = test system: FRS-2 tyrosine phosphorylation in RT112 cells; test: FRS-2 tyrosine phosphorylation upon growth factor stimulation (IP/Western Blot), RT112 cells; assay type: cell-based, human; settings: aFGF/heparin 50 ng/ml//5 μg/ml, EGF 10 ng/ml, insulin 5 μg/ml, FIG. 3
Method: as §1, §2

[3] = test system: FRS-2 tyrosine phosphorylation in RT4 cells; test: FRS-2 tyrosine phosphorylation after FGF-R inhibitor treatment (IP/Western Blot), RT4 cells; assay type: cell-based, human; settings: RT4 cells treated with inhibitor, FIG. 2A
Method: FIG. 2: Comparative analysis of FRS-2 phosphorylation following treatment with the FGF-R inhibitor PD173074 (inhibitor 1, see Methods in Example 1) in the RT4 cells, in the case of RT112 with TKI258/CHIR258, 4-Amino-5-fluoro-3[6-(4-methyl-1-piperazinyl)-1H-benzimidazol-2-yl]-2(1H)-quinolinone (inhibitor 2, see Methods in Example 1). The cell lines indicated are treated as shown. FRS-2 tyrosine phosphorylation is determined by immunoprecipitation with a specific FRS-2 antibody followed by […] Western Blotting, or by western blot using an antibody that detects phosphorylated Tyr196 on FRS2. […] Inhib. 1=inhibitor 1, Inhib. 2=inhibitor 2, DMSO=dimethyl sulfoxide.
as §2

[4] = test system: OPM2 multiple myeloma cell line; test: Cell proliferation assay (methylene blue, 96-well), OPM2; assay type: cell-based; settings: Homo sapiens, OPM-2; OPM2 multiple myeloma cells, 72 h; read-out: IC50 (nM) ± SD, proliferation inhibition
Source text: (§3) OPM2 and KMS11: human multiple myeloma (MM) cell lines derived from end-stage disease patients. OPM2 cells are obtained from DSMZ ACC #50.
(§4) KMS11 cells are provide by Dr. T Otsuki, Kawasaki Medical School, Okayama, Japan. Both cell lines are reported to carry the t(4,14) translocation and express a mutated, constitutively activated form of FGF-R3. In particular, OPM2 cells harbour a mutation in the ATP binding pocket in the kinase domain, which results in a change of lysine in position 650 into glutamic acid. KMS11 cells harbor a mutation in the extracellular domain of the receptor changing tyrosine in position 373 into cysteine. Both cell lines are grown in RPMI 1640 (Gibco #21875) supplemented with 1% L-glutamine (Amimed #5-10K00-H) and 20% FCS (Gibco #10082-147).
(§5) In detail, FGF-R1, FGF-R2 and FGF-R4 expression is determined by Western Blot using specific antibodies, respectively: sc-121 (Santa Cruz), sc-122 (Santa Cruz) and sc-124 (Santa Cruz). […] Cell proliferation is measured in 96-well plates. […] Upon addition of 200 μl/well HCl (3%) and incubation for 30 min at RT on a plate shaker, the Optical Density (OD) at 650 nm is measured. The concentration of inhibitor 1 providing 50% of proliferation inhibition is calculated using Excel module. […]

[5] = test system: HT1197 bladder carcinoma cell line; test: Cell proliferation assay (methylene blue, 96-well), HT1197; assay type: cell-based, human; settings: for sensitivity of growth to inhibition (in words): HT1197 cells; for IC50: Homo sapiens, HT1197 bladder cancer cells, 72 h, read-out: IC50 (nM) ± SD, proliferation inhibition
Method: HT1197: human urinary bladder transitional cell carcinoma established from a recurrent bladder carcinoma, histological grade G4, stage T2 (Masters et al. 1986, loc. cit.). Cells are obtained from ATCC # CRL-1473.
(§6) The bladder carcinoma cell lines are grown in MEM EBS (Minimum Essential Medium with Earls Basal Salts) (Amimed, Allschwil, Switzerland, #1-31F0-I) supplemented with 1% L-glutamine (Amimed #5-10K00-H), 1% MEM NEAA (MEM Non-essential Amino Acid Solution) (Amimed #5-13K00-H), 1% Na- pyruvate (Amimed #5-60F00-H) and 10% FCS (Gibco, Invitrogen AG, Basel, Schweiz, #10082-147).
(§7) In detail, FGF-R1, FGF-R2 and FGF-R4 expression is determined by Western Blot using specific antibodies, respectively: sc-121 (Santa Cruz), sc-122 (Santa Cruz) and sc-124 (Santa Cruz). To determine the expression of FGF-R3, first FGF-R3 is immunoprecipitated with the antibody F-0425 from Sigma, and the immunocomplexes are subjected to Western Blot using the antibody F-0425 from Sigma. Cell proliferation is measured in 96-well plates. The cells are seeded in a volume of 100 μl per well in the growth media given above. For RT 112, RT4 and SUM52 8500 cells/well are seeded, for VMCUB1, J82, HT1197 and KMS11, 5000 cells/well are seeded, for OPM2 30000 cells/well are seeded. Medium containing FGF-R inhibitor 1, FGFR inhibitor 2 or (as control) DMSO is added 24 h after seeding, respectively. After 72 h, cells are fixed by addition of 25 μl/well glutaraldehyde (20%) for 10 min at room temperature (RT). Cells are then washed twice with 200 μl/well H2O and 100 μl Methylene Blue (0.05%) are added. After incubation for 10 min at RT, cells are washed 3× with 200 μl/well H2O. Upon addition of 200 μl/well HCl (3%) and incubation for 30 min at RT on a plate shaker, the Optical Density (OD) at 650 nm is measured. The concentration of inhibitor 1 providing 50% of proliferation inhibition is calculated using Excel module.
(§8) The FGF-R dependency as well as sensitivity to inhibitor 1 and/or to inhibitor 2 for each of the indicated cell lines is characterized as indicated above. The effect of inhibitor 1 and inhibitor 2 on cell viability is assessed by means of proliferation assays; the IC50s shown are the average IC50s of several independent assays (their number given by N).

[6] = test system: VMCUB1 bladder carcinoma cell line; test: Cell proliferation assay (methylene blue, 96-well), VMCUB1; assay type: cell-based, human; settings: for IC50: Homo sapiens, VM-CUB-1, VMCUB1 bladder cancer cells, 72 h, read-out: IC50 (nM) ± SD, proliferation inhibition; for sensitivity of growth to inhibition (in words): VMCUB1 cells
Method: VMCUB-1: human urinary bladder transitional cell carcinoma established from a primary bladder carcinoma. Stage and histological grade are not recorded (Masters et al. 1986, loc. cit.). Cells are obtained from DSMZ ACC #400.
as §6, §7, §8

[7] = test system: RT4 bladder cancer cell line; test: Cell proliferation assay (methylene blue, 96-well), RT4; assay type: cell-based; settings: Homo sapiens; RT4 bladder cancer cells, 72 h, average of several independent assays; read-out: IC50 (nM) ± SD, proliferation inhibition
Method: as §6
(§9) In detail, FGF-R1, FGF-R2 and FGF-R4 expression is determined by Western Blot using specific antibodies, respectively: sc-121 (Santa Cruz), sc-122 (Santa Cruz) and sc-124 (Santa Cruz). […] Cell proliferation is measured in 96-well plates. […] Upon addition of 200 μl/well HCl (3%) and incubation for 30 min at RT on a plate shaker, the Optical Density (OD) at 650 nm is measured. The concentration of inhibitor 1 providing 50% of proliferation inhibition is calculated using Excel module.
as §8

[8] = test system: RT112 bladder cancer cell line; test: Cell proliferation assay (methylene blue, 96-well), RT112; assay type: cell-based; settings: Homo sapiens, RT-112; RT112 bladder cancer cells, 72 h, average of several independent assays; read-out: IC50 (nM) ± SD, proliferation inhibition
Method: as §6, §9, §8

[9] = test system: J82 bladder carcinoma cell line; test: Cell proliferation assay (methylene blue, 96-well), J82; assay type: cell-based, human; settings: for IC50: Homo sapiens, J82 bladder cancer cells, 72 h, read-out: IC50 (nM) ± SD, proliferation inhibition; for sensitivity of growth to inhibition (in words): J82 cells
Method: J82: human urinary bladder transitional cell carcinoma established from a primary bladder carcinoma, histological grade G3, stage T3 (Masters et al. 1986, loc. cit.). Cells are obtained from ATCC # HTB-1.
as §6, §7, §8

[10] = test system: KMS11 multiple myeloma cell line; test: Cell proliferation assay (methylene blue, 96-well), KMS11; assay type: cell-based; settings: Homo sapiens, KMS-11; KMS11 multiple myeloma cells, 72 h; read-out: IC50 (nM) ± SD, proliferation inhibition
Source text: as §3, §4, §5

[11] = test system: FRS-2 tyrosine phosphorylation in RT112 cells; test: FRS-2 tyrosine phosphorylation after FGF-R inhibitor treatment (IP/Western Blot), RT112 cells; assay type: cell-based, human; settings: RT112 cells treated with inhibitor, FIG. 2B
Method: The cell lines indicated are treated as shown. FRS-2 tyrosine phosphorylation is determined by immunoprecipitation with a specific FRS-2 antibody followed by anti-FRS-2 Western Blotting, or by western blot using an antibody that detects phosphorylated Tyr196 on FRS2.
Immunocomplexes are collected with protein A- or protein G-sepharose (Sigma, # P-9424; Sigma, # P-3296) and washed 3 × with lysis buffer. Bound proteins are released by boiling in 2 × sample buffer (20% SDS, 20% glycerol, 160 mM Tris pH 6.8, 4% β-mercaptoethanol, 0.04% bromo-phenol blue). […]

[12] = test system: SUM52 breast carcinoma cell line; test: Cell proliferation assay (methylene blue, 96-well), SUM52; assay type: cell-based; settings: Homo sapiens; SUM52 breast cancer cells, 72 h; read-out: IC50 (nM) ± SD, proliferation inhibition
Method: as §7, with “After 72 h, cells are fixed by addition of 25 μl/well glutaraldehyde (20%) for 10 min at room temperature (RT). Cells are then washed twice with 200 μl/well H2O and 100 μl Methylene Blue (0.05%) are added. After incubation for 10 min at RT, cells are washed 3× with 200 μl/well H2O.” left out
as §8

insulin
MAPK activation (pMAPK) [1]: activate MAPK
induction of FRS-2 tyrosine phosphorylation [2]: fail to induce phospho-FRS-2

CCN(CC)CCCCNc1ncc2cc(-c3cc(OC)cc(OC)c3)c(NC(=O)NC(C)(C)C)nc2n1 [Inhibitor 1, PD173074]
effect on FRS-2 tyrosine phosphorylation [3]: abolish FRS-2 tyrosine phosphorylation; also recorded: completely inhibits FRS-2 phosphorylation
IC50 [4]: 148 ± 31 nM
sensitivity of growth to inhibition (in words) [5]: resistant to inhibition
IC50 [5]: > 3000 nM
IC50 [6]: > 3000 nM
sensitivity of growth to inhibition (in words) [6]: resistant to inhibition
IC50 [7]: 28 ± 8 nM
IC50 [8]: 14 ± 3 nM
IC50 [9]: > 3000 nM
sensitivity of growth to inhibition (in words) [9]: resistant to inhibition
IC50 [10]: 50 ± 14 nM

CN1CCN(c2ccc3nc(-c4c(N)c5c(F)cccc5[nH]c4=O)[nH]c3c2)CC1 [Inhibitor 2, 4-Amino-5-fluoro-3[6-(4-methyl-1-piperazinyl)-1H-benzimidazol-2-yl]-2(1H)-quinolinone]
effect on FRS-2 tyrosine phosphorylation [11]: abolish FRS-2 tyrosine phosphorylation
sensitivity of growth to inhibition (in words) [5]: resistant to inhibition
IC50 [5]: > 3000 nM
IC50 [6]: > 2000 nM
sensitivity of growth to inhibition (in words) [6]: resistant to inhibition
IC50 [7]: 134 ± 58 nM
IC50 [8]: 60 ± 20 nM
IC50 [9]: > 3000 nM
sensitivity of growth to inhibition (in words) [9]: resistant to inhibition
IC50 [10]: 93 nM
IC50 [12]: 190 ± 58 nM
